Source: PMC10633902, “Investigating the antimicrobial activity, cytotoxicity, and action mechanism of acylated and amidated derivatives of AurH1 antifungal peptide” (BMC Microbiology, 2023)
Read-outs that look alike come from different tables or passages of the source. No end group written: not given here.

Key:
[1] = tested on: Escherichia coli (ATCC 25,922); set-up: method as in our previous study [6]; details: E. coli; ref our previous study [6]; cited from earlier work
[2] = tested on: Aspergillus niger (ATCC 9142); set-up: method as in our previous study [6]; details: A. niger; ref our previous study [6]; cited from earlier work
[3] = tested on: Staphylococcus aureus (ATCC 25,923); set-up: method as in our previous study [6]; details: S. aureus; ref our previous study [6]; cited from earlier work
[4] = tested on: C. albicans; test: Effect of salts and human serum on antimicrobial activity (MIC); type: cell-based, Candida albicans
Protocol: To evaluate the effect of salts and human serum on the antimicrobial activity of the AurH1-NH2 and AurH1 peptides, their antimicrobial activity (MICs values) against C. albicans under different conditions containing salt and human serum was determined. Therefore, mid-logarithmic phase yeasts diluted to 5 × 10^5 CFU/ml in SDB were added to related media containing different concentrations of human serum (10%, 20%, and 30%) and salts (150 mM NaCl and 1mM MgCl2), and incubated at 37 °C for 24 h.

[5] = tested on: Aspergillus flavus (ATCC 24,109); set-up: method as in our previous study [6]; details: A. flavus; ref our previous study [6]; cited from earlier work
[6] = tested on: Candida glabrata (ATCC 90,030); set-up: method as in our previous study [6]; details: C. glabrata; ref our previous study [6]; cited from earlier work
[7] = tested on: C. albicans; set-up: method as in PMID 31264322; details: cited from earlier work
[8] = tested on: Candida krusei (ATCC 28,870); set-up: method as in our previous study [6]; details: C. krusei; ref our previous study [6]; cited from earlier work
[9] = tested on: C. albicans; test: Ergosterol binding assay (MIC in presence and absence of ergosterol); type: cell-based, Candida albicans
Protocol: An ergosterol binding assay was performed to measure the binding potency of peptides to fungal membrane sterols. For this purpose, the ergosterol was dissolved in DMSO and Tween-20, it was heated to increase the solubility of the formed emulsion and diluted in an SDB medium at a concentration of […] and incubated at 37 °C for 1 h. After that, MIC of the AurH1, Ac-AurH1, and AurH1-NH2 peptides was measured by the micro-dilution method in the presence and absence of ergosterol in different concentrations ([…]) against C. albicans.

[10] = tested on: Candida albicans (ATCC 10,231); set-up: method as in our previous study [6]; details: C. albicans; ref our previous study [6]; cited from earlier work
[11] = tested on: C. albicans; test: Killing kinetic assay (time of killing); type: cell-based, Candida albicans; details: 1X MIC concentration
[12] = tested on: human red blood cells; type: cell-based; details: 1 h
Protocol: A hemolytic assay was performed to investigate the effects of peptides on human red blood cells. First, 5 ml of fresh human blood was taken from a volunteer. After that, 20% (v/v) suspension of human erythrocytes was prepared and diluted in PBS (1:20). Next, 100 µL of this blood suspension was added in triplicate to 100 µL of a 2-fold serial dilution series of the peptide in a 96‐well plate. 1% Triton-X 100 was used as a positive control to lyse 100% of RBCs, and sterile 0.9% NaCl solution was used as a negative control. Then the plates were incubated at 37 °C for 1 h and centrifuged at 3500 rpm for 10 min. Next, 100 µL of the supernatant was transferred to a new 96-well plate to measure the absorbance at 414 nm using a microplate reader (STAT FAX 2100, BioTek, Winooski, USA). Finally, the percentage of hemolysis was calculated as follows: […]

Substance: WFKIIKK [AurH1, WFKIIKK]
- MIC [1]: > 1000 µg/mL
- MBC (MFC) [2]: 500 µg/mL
- MIC [2]: 125 µg/mL
- MIC [3]: > 1000 µg/mL
- MIC ([4]; SDB): 15.6 µg/mL
- MIC ([4]; SDB + 10% serum (human)): 15.6 µg/mL
- MIC ([4]; SDB + 20% serum (human)): 62.5 µg/mL
- MIC ([4]; SDB + 30% serum (human)): 125 µg/mL
- MIC ([4]; SDB + MgCl2 (1 mM)): 15.6 µg/mL
- MIC ([4]; SDB + NaCl (150 mM)): 15.6 µg/mL
- MIC [5]: > 1000 µg/mL
- MBC (MFC) [6]: 500 µg/mL
- MIC [6]: 125 µg/mL
- combinatorial effect (in words) ([7]; in combination with amphotericin B): synergistic effects
- combinatorial effect (in words) ([7]; in combination with fluconazole): synergistic effects
- MBC (MFC) [8]: 250 µg/mL
- MIC [8]: 31.25 µg/mL
- MIC ([9]; after treatment with Ergosterol (Erg)): 15.6 µg/mL
- MIC ([9]; before treatment with Ergosterol (substance alone)): 15.6 µg/mL
- MBC (MFC) [10]: 125 µg/mL
- MIC [10]: 15.625 µg/mL
- time to kill all C. albicans (maximum fungicidal effect) [11]: 24 h
- HC50 (concentration that lyses 50% of red blood cells) [12]: 13,484 µg/ml
